# Measurements reported in patent US20220152087A1, “CYCLODEXTRIN DERIVATIVES REDUCING FLAVIVIRUS NS1-INDUCED ENDOTHELIAL HYPERPERMEABILITY AND VASCULAR LEAK” (priority 2020, published 2022).
# Test system: endothelial dysfunction induced by DENV NS1 in HPMEC monolayers
# Assay: Effect of cyclodextrins on endothelial dysfunction induced by DENV NS1 (TEER of HPMEC monolayers in transwells)
# Format: cell-based, human
# Settings: DENV NS1 at 10 micrograms/mL, TEER 2 to 10 hours post-treatment, AUC vs DENV NS1-only control
# Experimental: The present invention is based on the evaluation of the in vitro efficacy against DENV NS1-mediated pathogenesis of a series of different CDs that display variable cavity sizes as well as different degrees and types of substitution. In an in vitro model of endothelial permeability, CDs, at concentrations with no anticoagulant effects, were added to human pulmonary microvascular endothelial cells (HPMECs) treated with DENV NS1 to induce endothelial hyperpermeability.
# Endothelial disruption (hyperpermeability) was quantified by measuring transendothelial electrical resistance (TEER). […] Sulfate group substitution of cyclodextrins contributed to the anti-leak activity.
# The method is suitable to study the effect of NS1 from DENV from all serotypes and NS1 from other flaviviruses. HPMEC monolayers (6×10^4 cells/transwell) cultured in transwell inserts for three days were treated with the CD compounds then treated or not with DENV NS1 at 10 micrograms/mL. Recombinant NS1 protein from DENV (Strain 16681) weas certified to be endotoxin-free and >95% purity (Native Antigen, United Kingdom). TEER was measured from 2 to 10 hours post-treatment. The area under the curve of the different treatments+DENV NS1 was compared by one-way ANOVA plus Dunnett's test to the DENV NS1-only control.
# Randomly substituted alpha-cyclodextrin sulfate sodium salt (average degree of substitution: ˜12) was used as specified according to Example 1. […] A) HPMEC monolayers (6×10e4 cells/transwell) cultured in transwell inserts for three days were treated with the compounds in the presence or absence of DENV NS1 at 10 ug/mL. TEER was measured from 2 to 10 hours post-treatment. Relative TEER was calculated as the ratio between resistance values obtained in the different treatments and medium-only controls. B) Area under the curve of the different treatments was compared by one-way ANOVA plus Dunnett's test to the DENV NS1control. P-values are summarized with number of asterisks as follows: *p≤0.05, **p≤0.01, ***p≤0.001, ****p≤0.0001. The effective dose of cyclodextrin for hindering endothelial leakage was 10 micrograms/mL.
row,Substance,effective dose of cyclodextrin for hindering endothelial leakage / hyperpermeability
1,"2,3-di-OH-6-sulfo-gamma cyclodextrin sodium salt",10 micrograms/mL
2,"2,3-dimethyl-6-sulfate-alpha cyclodextrin sodium salt",250 micrograms/mL
3,"2,3-dimethyl-6-sulfate-beta cyclodextrin sodium salt",100 micrograms/mL
4,"2,3-dimethyl-6-sulfate-gamma cyclodextrin sodium salt",100 micrograms/mL
5,2-hydroxypropyl-beta-cyclodextrin [reference compound],1000 micrograms/mL
6,2-hydroxypropyl-gamma-cyclodextrin,1000 micrograms/mL
7,alpha-cyclodextrin sulfate sodium salt,10 micrograms/mL
8,beta cyclodextrin sulfate sodium salt,10 micrograms/mL
9,gamma cyclodextrin sulfate sodium salt,10 micrograms/mL
10,sulfobutlyether beta cyclodextrin sodium salt,100 micrograms/mL
11,sulfopropylether alpha cyclodextrin sodium salt,1000 micrograms/mL
12,sulfopropylether beta cyclodextrin sodium salt,1000 micrograms/mL
13,sulfopropylether gamma cyclodextrin sodium salt,1000 micrograms/mL
